In the NIST ThermoML archive (doi:10.1021/je900916e):

Test: cn = amount concentration of the nth substance listed, in mol/dm3
Conditions: 101 kPa, Liquid, Advanced Condctivity Orion 162A

N.O=C(O)C(F)(F)C(F)(F)C(F)(F)C(F)(F)C(F)(F)C(F)(F)C(F)(F)F [ammonium perfluorooctanoate] + O
Conditions | electrical conductivity [S/m]
288.15 K, c1 = 0.002632 | 0.019
288.15 K, c1 = 0.005195 | 0.0351
288.15 K, c1 = 0.007692 | 0.051
288.15 K, c1 = 0.01013 | 0.0665
288.15 K, c1 = 0.0125 | 0.0805
288.15 K, c1 = 0.01481 | 0.0943
288.15 K, c1 = 0.01707 | 0.1074
288.15 K, c1 = 0.01928 | 0.1198
288.15 K, c1 = 0.02143 | 0.1318
288.15 K, c1 = 0.02353 | 0.1429
288.15 K, c1 = 0.02558 | 0.1533
288.15 K, c1 = 0.02759 | 0.163
288.15 K, c1 = 0.02955 | 0.1691
288.15 K, c1 = 0.03146 | 0.174
288.15 K, c1 = 0.03333 | 0.1785
288.15 K, c1 = 0.03516 | 0.1828
288.15 K, c1 = 0.03696 | 0.187
288.15 K, c1 = 0.03957 | 0.1926
288.15 K, c1 = 0.04211 | 0.1982
288.15 K, c1 = 0.04456 | 0.2036
288.15 K, c1 = 0.04694 | 0.209
288.15 K, c1 = 0.05 | 0.2155
288.15 K, c1 = 0.05294 | 0.2216
288.15 K, c1 = 0.05577 | 0.2275
293.15 K, c1 = 0.002632 | 0.021
293.15 K, c1 = 0.005195 | 0.0402
293.15 K, c1 = 0.007692 | 0.0582
293.15 K, c1 = 0.01013 | 0.0753
293.15 K, c1 = 0.0125 | 0.092
293.15 K, c1 = 0.01481 | 0.1078
293.15 K, c1 = 0.01707 | 0.1224
293.15 K, c1 = 0.01928 | 0.1364
293.15 K, c1 = 0.02143 | 0.1498
293.15 K, c1 = 0.02353 | 0.1625
293.15 K, c1 = 0.02558 | 0.1735
293.15 K, c1 = 0.02759 | 0.1815
293.15 K, c1 = 0.02955 | 0.1888
293.15 K, c1 = 0.03146 | 0.1942
293.15 K, c1 = 0.03333 | 0.1995
293.15 K, c1 = 0.03516 | 0.2045
293.15 K, c1 = 0.03696 | 0.209
293.15 K, c1 = 0.03957 | 0.216
293.15 K, c1 = 0.04211 | 0.222
293.15 K, c1 = 0.04536 | 0.231
293.15 K, c1 = 0.04848 | 0.239
293.15 K, c1 = 0.05149 | 0.247
293.15 K, c1 = 0.05437 | 0.2545
298.15 K, c1 = 0.002817 | 0.0241
298.15 K, c1 = 0.005556 | 0.0457
298.15 K, c1 = 0.008219 | 0.0665
298.15 K, c1 = 0.01081 | 0.0848
298.15 K, c1 = 0.01333 | 0.1033
298.15 K, c1 = 0.01579 | 0.1221
298.15 K, c1 = 0.01818 | 0.1411
298.15 K, c1 = 0.02051 | 0.1577
298.15 K, c1 = 0.02278 | 0.1735
298.15 K, c1 = 0.025 | 0.1884
298.15 K, c1 = 0.02716 | 0.199
298.15 K, c1 = 0.02927 | 0.2067
298.15 K, c1 = 0.03132 | 0.2144
298.15 K, c1 = 0.03333 | 0.2207
298.15 K, c1 = 0.03529 | 0.2269
298.15 K, c1 = 0.03721 | 0.2337
298.15 K, c1 = 0.03908 | 0.2394
298.15 K, c1 = 0.04091 | 0.2452
298.15 K, c1 = 0.0427 | 0.251
298.15 K, c1 = 0.04444 | 0.2558
298.15 K, c1 = 0.04699 | 0.2635
298.15 K, c1 = 0.04946 | 0.2721
298.15 K, c1 = 0.05185 | 0.2798
298.15 K, c1 = 0.05417 | 0.2856
298.15 K, c1 = 0.05641 | 0.2923
303.15 K, c1 = 0.002632 | 0.0264
303.15 K, c1 = 0.005195 | 0.0503
303.15 K, c1 = 0.007692 | 0.0726
303.15 K, c1 = 0.01013 | 0.0937
303.15 K, c1 = 0.0125 | 0.1137
303.15 K, c1 = 0.01481 | 0.1325
303.15 K, c1 = 0.01707 | 0.1505
303.15 K, c1 = 0.01928 | 0.1679
303.15 K, c1 = 0.02143 | 0.1833
303.15 K, c1 = 0.02353 | 0.1983
303.15 K, c1 = 0.02558 | 0.2125
303.15 K, c1 = 0.02759 | 0.221
303.15 K, c1 = 0.02955 | 0.229
303.15 K, c1 = 0.03146 | 0.236
303.15 K, c1 = 0.03333 | 0.243
303.15 K, c1 = 0.03516 | 0.2495
303.15 K, c1 = 0.03696 | 0.256
303.15 K, c1 = 0.03957 | 0.2645
303.15 K, c1 = 0.04211 | 0.273
303.15 K, c1 = 0.04456 | 0.281
303.15 K, c1 = 0.04694 | 0.289
303.15 K, c1 = 0.05 | 0.299
303.15 K, c1 = 0.05294 | 0.309
303.15 K, c1 = 0.05577 | 0.3185
308.15 K, c1 = 0.002632 | 0.0291
308.15 K, c1 = 0.005195 | 0.0556
308.15 K, c1 = 0.007692 | 0.0802
308.15 K, c1 = 0.01013 | 0.1034
308.15 K, c1 = 0.0125 | 0.1244
308.15 K, c1 = 0.01481 | 0.1452
308.15 K, c1 = 0.01707 | 0.165
308.15 K, c1 = 0.01928 | 0.1844
308.15 K, c1 = 0.02143 | 0.203
308.15 K, c1 = 0.02353 | 0.22
308.15 K, c1 = 0.02558 | 0.232
308.15 K, c1 = 0.02759 | 0.242
308.15 K, c1 = 0.02955 | 0.251
308.15 K, c1 = 0.03146 | 0.259
308.15 K, c1 = 0.03333 | 0.267
308.15 K, c1 = 0.03516 | 0.274
308.15 K, c1 = 0.03696 | 0.281
308.15 K, c1 = 0.03957 | 0.291
308.15 K, c1 = 0.04211 | 0.301
308.15 K, c1 = 0.04456 | 0.3105
308.15 K, c1 = 0.04772 | 0.322
308.15 K, c1 = 0.05075 | 0.333
308.15 K, c1 = 0.05366 | 0.344
313.15 K, c1 = 0.002632 | 0.0318
313.15 K, c1 = 0.005195 | 0.0606
313.15 K, c1 = 0.007692 | 0.0875
313.15 K, c1 = 0.01013 | 0.1126
313.15 K, c1 = 0.0125 | 0.1364
313.15 K, c1 = 0.01481 | 0.1592
313.15 K, c1 = 0.01707 | 0.1811
313.15 K, c1 = 0.01928 | 0.2025
313.15 K, c1 = 0.02143 | 0.223
313.15 K, c1 = 0.02353 | 0.241
313.15 K, c1 = 0.02558 | 0.256
313.15 K, c1 = 0.02759 | 0.267
313.15 K, c1 = 0.02955 | 0.277
313.15 K, c1 = 0.03146 | 0.286
313.15 K, c1 = 0.03333 | 0.295
313.15 K, c1 = 0.03516 | 0.303
313.15 K, c1 = 0.03696 | 0.311
313.15 K, c1 = 0.03957 | 0.322
313.15 K, c1 = 0.04211 | 0.333
313.15 K, c1 = 0.04456 | 0.344
313.15 K, c1 = 0.04694 | 0.354
313.15 K, c1 = 0.05 | 0.367
313.15 K, c1 = 0.05294 | 0.38
318.15 K, c1 = 0.002632 | 0.0344
318.15 K, c1 = 0.005195 | 0.0656
318.15 K, c1 = 0.007692 | 0.0948
318.15 K, c1 = 0.01013 | 0.1225
318.15 K, c1 = 0.0125 | 0.1474
318.15 K, c1 = 0.01481 | 0.1726
318.15 K, c1 = 0.01707 | 0.1968
318.15 K, c1 = 0.01928 | 0.219
318.15 K, c1 = 0.02143 | 0.241
318.15 K, c1 = 0.02353 | 0.262
318.15 K, c1 = 0.02558 | 0.279
318.15 K, c1 = 0.02759 | 0.292
318.15 K, c1 = 0.02955 | 0.303
318.15 K, c1 = 0.03146 | 0.313
318.15 K, c1 = 0.03333 | 0.323
318.15 K, c1 = 0.03516 | 0.3325
318.15 K, c1 = 0.03696 | 0.3415
318.15 K, c1 = 0.03957 | 0.3535
318.15 K, c1 = 0.04211 | 0.3655
318.15 K, c1 = 0.04456 | 0.377
318.15 K, c1 = 0.04772 | 0.3915
318.15 K, c1 = 0.05074 | 0.4055
318.15 K, c1 = 0.05366 | 0.419
